Assay [1] has as its system S. aureus HIP13419, NR-46413. The assay can be described thus: microbe, parasite or virus in culture. The assay is classed as cell-based, Staphylococcus aureus. The method, boiled down:
(§1)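 Following CLSI guidance, the assay uses twofold compound dilutions in tryptic soy broth plus 0.002% polysorbate 80, equal-volume inoculum of 10^6 CFU/mL, and a 24 h shaken incubation at 37 °C. Values are medians of triplicate or more, in μg/mL.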

Assay [2] concerns S. aureus USA300. The assay can be described thus: microbe, parasite or virus in culture. The assay is classed as cell-based, Staphylococcus aureus. The method, boiled down: as §1
In assay [3] the test system is E. faecium E155. The assay can be described thus: microbe, parasite or virus in culture. The assay is classed as cell-based, Enterococcus faecium. In a few lines: as §1
Assay [4] relates to E. faecium E7314. The assay can be described thus: microbe, parasite or virus in culture. The assay is classed as cell-based, Enterococcus faecium. The method, boiled down: as §1
Assay [5] deals with E. faecalis E7604. The assay can be described thus: microbe, parasite or virus in culture. The assay is classed as cell-based, Enterococcus faecalis. In a few lines:
as §1

The test system of assay [6] is E. faecium E0338. In words: MIC assay. The assay is classed as cell-based, Enterococcus faecium.
Assay [7] concerns E. faecium E0341. In words: MIC assay. The assay is classed as cell-based, Enterococcus faecium.
Assay [8] relates to E. faecium E2359. The assay can be described thus: MIC assay. The assay is classed as cell-based, Enterococcus faecium.
In assay [9] the test system is E. faecium E7312. The assay can be described thus: MIC assay. The assay is classed as cell-based, Enterococcus faecium.
Assay [10] concerns MRSA USA300. In words: MIC assay in the presence of sheep serum. The assay is classed as cell-based, Staphylococcus aureus. The settings on record: MRSA USA300, TSB + 0.002% p80 + 50% sheep serum. In a few lines: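 Broth microdilution MIC per CLSI against MRSA USA300, 2-fold compound dilutions, 10^6 CFU/mL inoculum (pre-mixing), polypropylene plates, 37 °C for 24 h with shaking. Medium was TSB + 0.002% polysorbate 80 + 50% sheep serum; MIC as median of at least triplicates, in μg/mL.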

Assay [11] deals with S. aureus ATCC29123. The assay can be described thus: Lipid II antagonization assay. For visible bacterial growth with lipid II: key: − means no visible growth; + means visible growth. For visible bacterial growth without lipid II: key: − means no visible growth; + means visible growth. The assay is classed as cell-based, Staphylococcus aureus. The settings on record: for visible bacterial growth with lipid II / visible bacterial growth without lipid II: 8×MIC of test compound, 24 h; for visible bacterial growth with lipid II: 5-fold molar excess of lipid II; for bacterial growth after co-incubation with lipid II: 8×MIC. As to the method: Lipid II in chloroform was added in the appropriate amount (5-fold molar excess compared to test antibiotics) to a 96-well plate and the chloroform was allowed to evaporate. […] Of these dilutions, 50 μL was mixed with the 5-fold molar excess of pure lipid II in triplicates in the plate as well as added to the plate in triplicates without lipid II present. S. aureus ATCC29123 colonies were suspended in TSB with 0.002% p80 by direct colony suspension to an optical density that reached a level equivalent to the 0.5 McFarlan standard. […] The samples were incubated at 37° C. for 24 h with constant shaking (600 rpm) and inspected for visible bacterial growth. Positive growth control consisted of wells with bacterial suspension and without antibiotic or lipid II. Negative growth control consisted of solely media without bacterial suspension, antibiotic or lipid II.
In the antagonization assay, lipid II is co-incubated with the test antibiotics in the presence of bacterial culture. When lipid II binds the glycopeptides, the binding of these antibiotics to their target in the growing bacterial culture is antagonized. This ultimately results in diminished activity of the antibiotics and bacterial growth which normally would not be visible (at 8×MIC) becomes visible. Therefore, this assay could be used to determine if part of the mechanism of action of our compounds involves binding to lipid II.

[12] abbreviates: S. aureus HIP13419, NR-46413 VRSA.
Setting [13] is: E. faecium E155, VanA (Table 10).
Where [14] appears, read: E. faecium E7314, VanB (Table 10).
[15] abbreviates: Staphylococcus aureus, MRSA / USA300.

Here are results for six compounds from patent publication US20230174584A1, “Antibiotic Compounds” (priority 2019, published 2023).

Converted amounts (≈) assume the structure as drawn.

Consider `CCCCCCCNC(N)=Nc1ccc(CN[C@@]2(C)C[C@H](O[C@H]3[C@H](Oc4c5cc6cc4Oc4ccc(cc4Cl)[C@@H](O)[C@@H](NC(=O)[C@@H](CC(C)C)NC)C(=O)N[C@@H](CC(N)=O)C(=O)N[C@H]6C(=O)N[C@H]4C(=O)N[C@H](C(=O)N[C@H](C(=O)O)c6cc(O)cc(O)c6-c6cc4ccc6O)[C@H](O)c4ccc(c(Cl)c4)O5)O[C@H](CO)[C@@H](O)[C@@H]3O)O[C@@H](C)[C@H]2O)cc1` [Compound 5], for which the MIC is 1 µg/mL (≈ 0.59 µM) in [1] (setting [12]); 0.016 µg/mL in assay [2] (MRSA USA300, TSB + 0.002% p80); 0.01562 µg/mL (≈ 0.00922 µM) in assay [2] (S. aureus USA300 MRSA); 2 µg/mL (≈ 1.18 µM) in assay [3] (setting [13]); 2 µg/mL (≈ 1.18 µM) in [3] (E. faecium E155 VRE (VanA)); ≤8 ng/mL in assay [4] (setting [14]). Also, the MIC is 7.812 ng/mL (≈ 0.00461 µM) in [4] (E. faecium E7314 VRE (VanB)); 0.016 µg/mL (≈ 0.00944 µM) in assay [5] (E. faecalis E7604 VRE (vanB)); 4 µg/mL (≈ 2.36 µM) in assay [6] (E. faecium E0338, VanA); 8 µg/mL (≈ 4.72 µM) in assay [7] (E. faecium E0341, VanA); ≤8 ng/mL in assay [8] (E. faecium E2359, VanB); 0.25 µg/mL (≈ 0.148 µM) in assay [9] (E. faecium E7312, VanA). Moreover, the MIC in [10] was determined as 0.031 µg/mL. Moreover, the “visible bacterial growth with lipid II” value in assay [11] is reported as “+”. The “visible bacterial growth without lipid II” value in assay [11] is “−”. Moreover, the “bacterial growth after co-incubation with lipid II” value in assay [11] is “Bacterial growth was visible”.

Turning to `CCCCCCCCNC(N)=Nc1ccc(CN[C@@]2(C)C[C@H](O[C@H]3[C@H](Oc4c5cc6cc4Oc4ccc(cc4Cl)[C@@H](O)[C@@H](NC(=O)[C@@H](CC(C)C)NC)C(=O)N[C@@H](CC(N)=O)C(=O)N[C@H]6C(=O)N[C@H]4C(=O)N[C@H](C(=O)N[C@H](C(=O)O)c6cc(O)cc(O)c6-c6cc4ccc6O)[C@H](O)c4ccc(c(Cl)c4)O5)O[C@H](CO)[C@@H](O)[C@@H]3O)O[C@@H](C)[C@H]2O)cc1` [Compound 6], the MIC in [1] (setting [12]) is 0.5 µg/mL (≈ 0.293 µM); in assay [2] (MRSA USA300, TSB + 0.002% p80), ≤0.008 µg/mL; in [2] (S. aureus USA300 MRSA), ≤0.007812 µg/mL; in [3] (setting [13]), 1 µg/mL (≈ 0.585 µM); in assay [3] (E. faecium E155 VRE (VanA)), 1 µg/mL (≈ 0.585 µM); in [4] (setting [14]), ≤8 ng/mL. Besides, the MIC is ≤7.812 ng/mL in [4] (E. faecium E7314 VRE (VanB)); ≤0.008 µg/mL in assay [5] (E. faecalis E7604 VRE (vanB)); 2 µg/mL (≈ 1.17 µM) in assay [6] (E. faecium E0338, VanA); 4 µg/mL (≈ 2.34 µM) in assay [7] (E. faecium E0341, VanA); ≤8 ng/mL in assay [8] (E. faecium E2359, VanB); 0.063 µg/mL (≈ 0.0369 µM) in assay [9] (E. faecium E7312, VanA). Besides, the MIC in [10] was 0.063 µg/mL. In assay [11], the “visible bacterial growth with lipid II” value was “+”. Moreover, in assay [11], the “visible bacterial growth without lipid II” value is “−”. Also, in [11], the “bacterial growth after co-incubation with lipid II” value was “Bacterial growth was visible”.

On to `CCCCCCN(CCCCCC)C(N)=Nc1ccc(CN[C@@]2(C)C[C@H](O[C@H]3[C@H](Oc4c5cc6cc4Oc4ccc(cc4Cl)[C@@H](O)[C@@H](NC(=O)[C@@H](CC(C)C)NC)C(=O)N[C@@H](CC(N)=O)C(=O)N[C@H]6C(=O)N[C@H]4C(=O)N[C@H](C(=O)N[C@H](C(=O)O)c6cc(O)cc(O)c6-c6cc4ccc6O)[C@H](O)c4ccc(c(Cl)c4)O5)O[C@H](CO)[C@@H](O)[C@@H]3O)O[C@@H](C)[C@H]2O)cc1` [Compound 12], for which the MIC was 0.25 µg/mL (≈ 0.142 µM) in [1] (setting [12]); 0.063 µg/mL in [2] (MRSA USA300, TSB + 0.002% p80); 0.0625 µg/mL (≈ 0.0354 µM) in assay [2] (S. aureus USA300 MRSA); 1 µg/mL (≈ 0.567 µM) in assay [3] (setting [13]); 1 µg/mL (≈ 0.567 µM) in assay [3] (E. faecium E155 VRE (VanA)); ≤8 ng/mL in assay [4] (setting [14]). Besides, the MIC is ≤7.812 ng/mL in [4] (E. faecium E7314 VRE (VanB)); ≤0.008 µg/mL in [5] (E. faecalis E7604 VRE (vanB)); 2 µg/mL (≈ 1.13 µM) in assay [6] (E. faecium E0338, VanA); 2 µg/mL (≈ 1.13 µM) in assay [7] (E. faecium E0341, VanA); ≤8 ng/mL in assay [8] (E. faecium E2359, VanB); 0.125 µg/mL (≈ 0.0708 µM) in assay [9] (E. faecium E7312, VanA). Further, the MIC in assay [10] amounted to 0.063 µg/mL.

Regarding `CN[C@H](CC(C)C)C(=O)N[C@H]1C(=O)N[C@@H](CC(N)=O)C(=O)N[C@H]2C(=O)N[C@H]3C(=O)N[C@H](C(=O)N[C@H](C(=O)O)c4cc(O)cc(O)c4-c4cc3ccc4O)[C@H](O[C@H]3C[C@](C)(N)[C@@H](O)[C@H](C)O3)c3ccc(c(Cl)c3)Oc3cc2cc(c3O[C@@H]2O[C@H](CO)[C@@H](O)[C@H](O)[C@H]2O[C@H]2C[C@](C)(NCc3ccc(-c4ccc(Cl)cc4)cc3)[C@@H](O)[C@H](C)O2)Oc2ccc(cc2Cl)[C@H]1O` [Oritavancin], the MIC in assay [1] (Staphylococcus aureus, VRSA) amounted to 0.25 µg/mL (≈ 0.139 µM); in [2] (setting [15]), 0.0625 µg/mL (≈ 0.0349 µM); in assay [3] (Enterococcus faecium, VRE), 0.5 µg/mL (≈ 0.279 µM); in assay [4] (Enterococcus faecium, VRE), 125 ng/mL (≈ 0.0697 µM); in assay [5] (Enterococcus faecalis, VRE), 0.063 µg/mL (≈ 0.0351 µM).

For the compound `CCCCCCCCCCNCCN[C@@]1(C)C[C@H](O[C@H]2[C@H](Oc3c4cc5cc3Oc3ccc(cc3Cl)[C@@H](O)[C@@H](NC(=O)[C@@H](CC(C)C)NC)C(=O)N[C@@H](CC(N)=O)C(=O)N[C@H]5C(=O)N[C@H]3C(=O)N[C@H](C(=O)N[C@H](C(=O)O)c5cc(O)c(CNCP(=O)(O)O)c(O)c5-c5cc3ccc5O)[C@H](O)c3ccc(c(Cl)c3)O4)O[C@H](CO)[C@@H](O)[C@@H]2O)O[C@@H](C)[C@H]1O` [Telavancin, reference compound], the MIC in assay [1] (Staphylococcus aureus, VRSA) was 4 µg/mL (≈ 2.28 µM); in [2] (setting [15]), 0.125 µg/mL (≈ 0.0712 µM); in [3] (Enterococcus faecium, E155), 4 µg/mL (≈ 2.28 µM); in assay [3] (Enterococcus faecium, VRE), 4 µg/mL (≈ 2.28 µM); in assay [4] (Enterococcus faecium, E7314), ≤ 8 ng/mL; in assay [4] (Enterococcus faecium, VRE), ≤ 7.81 ng/mL. Besides, the MIC in assay [5] (Enterococcus faecalis, VRE) is 0.063 µg/mL (≈ 0.0359 µM); in assay [6] (Enterococcus faecium, E0338), 8 µg/mL (≈ 4.56 µM); in [7] (Enterococcus faecium, E0341) it was 8 µg/mL (≈ 4.56 µM); in assay [8] (Enterococcus faecium, E2359), ≤ 8 ng/mL; in assay [9] (Enterococcus faecium, E7312) it was 2 µg/mL (≈ 1.14 µM). The “visible bacterial growth with lipid II” value in [11] is listed as “+”. Moreover, the “visible bacterial growth without lipid II” value in [11] was “−”.

Turning to `CN[C@H](CC(C)C)C(=O)N[C@H]1C(=O)N[C@@H](CC(N)=O)C(=O)N[C@H]2C(=O)N[C@H]3C(=O)N[C@H](C(=O)N[C@H](C(=O)O)c4cc(O)cc(O)c4-c4cc3ccc4O)[C@H](O)c3ccc(c(Cl)c3)Oc3cc2cc(c3O[C@@H]2O[C@H](CO)[C@@H](O)[C@H](O)[C@H]2O[C@H]2C[C@](C)(N)[C@H](O)[C@H](C)O2)Oc2ccc(cc2Cl)[C@H]1O` [Vancomycin, reference compound], the MIC is > 128 µg/mL in [1] (Staphylococcus aureus, VRSA); 1 µg/mL (≈ 0.69 µM) in [2] (setting [15]); > 128 µg/mL in [3] (Enterococcus faecium, E155); > 128 µg/mL in assay [3] (Enterococcus faecium, VRE); 128000 ng/mL (≈ 88.3 µM) in assay [4] (Enterococcus faecium, E7314); 128000 ng/mL (≈ 88.3 µM) in [4] (Enterococcus faecium, VRE). Moreover, the MIC is 16 µg/mL (≈ 11 µM) in assay [5] (Enterococcus faecalis, VRE); > 128 µg/mL in assay [6] (Enterococcus faecium, E0338); > 128 µg/mL in assay [7] (Enterococcus faecium, E0341); 128000 ng/mL (≈ 88.3 µM) in assay [8] (Enterococcus faecium, E2359); > 128 µg/mL in assay [9] (Enterococcus faecium, E7312). For the same compound, the “visible bacterial growth with lipid II” value in assay [11] was “+”. Further, the “visible bacterial growth without lipid II” value in assay [11] is “−”.
